Measurements from patent publication US20030022864A1, “9-[(5-dihydroxyboryl)-pentyl] purines, useful as an inhibitor of inflammatory cytokines” (priority 2001, published 2003).

Legend:
[1] = tested on: CCR4 mRNA; test: Expression of C-C chemokine receptor mRNA in normal human PBMC by RT-PCR: CCR4; type: cell-based; settings: unstimulated human PBMC, FIG. 6
Procedure: (§1) The ability of LMP-420 to affect the expression of C-C chemokine receptors on normal human PBMC was tested as illustrated in FIG. 6. […] There was no effect on CCR4, the only other C-C chemokine receptor whose mRNA could be detected in these unstimulated human PBMC. Also, there was no effect on the mRNA for GAPDH which is used as a “housekeeping gene” to verify that equal amounts of mRNA are being reversed transcribed for the analysis. Thus, the ability of LMP-420 to inhibit the expression of CCR1 might contribute to antiinflammatory properties of LMP-420, as well as its ability to inhibit HIV-1 replication.

[2] = tested on: nitric oxide production by murine macrophage cell line J774.1; test: Nitric oxide production by a murine macrophage cell line (J774.1), nitrate/nitrite by Griess reagent; type: cell-based; settings: FIG. 2
Procedure: (§2) Assay for inhibition of TNF-α or nitric oxide (NO) by a murine macrophage cell line
(§3) Murine macrophage cell line J774.1 cells were maintained by culture at 37° C. in 5% humidified CO2 in media that was […] (DMEM) supplemented with 100 U/ml penicillin; 100 μg/ml streptomycin; 2 mM L-glutamine; 1 mM Na pyruvate; 1% MEM non-essential amino acids; 25 mM HEPES (all from GIBCO, Gaithersburg, Md., United States of America); and 10% pooled, heat-inactivated (56° C., 30 minutes) fetal bovine serum (FBS; GIBCO). For assays of TNF-α and nitric oxide production, cells were cultured at 1×10^5 cells/well in 96-well tissue culture plates. Test compound was prepared as a stock solution in DMSO and added to each well to give the desired final concentration. DMSO was added to control wells to serve as a vehicle control. Each concentration of test material or vehicle control was tested in replicates of 4 wells. After a 1 hour exposure to test material, a stimulus (either SAK2 stimulatory oligonucleotide [10 μg] or LPS [10 ng/ml]+IFNγ[100 u/ml]) was added to each well, and the plates incubated for 48 hours at 37° C. in 5% humidified CO2. […] Content of nitrite/nitrate in J774.1 cell culture supernatants was expressed as μM.

[3] = tested on: mRNA for GAPDH; test: Housekeeping gene mRNA in normal human PBMC by RT-PCR: GAPDH; type: cell-based; settings: FIG. 6
Procedure: as §1

[4] = tested on: TNF-α production by murine macrophage cell line J774.1; test: Inhibition of TNF-α production by a murine macrophage cell line (J774.1); type: cell-based; settings: FIG. 1; read-out: IC50, production of TNF-α by cultured murine macrophage cell line
Procedure: as §2, §3

[5] = tested on: mRNA encoding for CCR1; test: Expression of C-C chemokine receptor mRNA in normal human PBMC by RT-PCR: CCR1; type: cell-based; settings: FIG. 6
Procedure: as §1

[6] = tested on: TNF-α production by human monocytes; test: Assay for inhibition of TNF-α production by human monocytes; type: cell-based; settings: 100 ng/ml LPS, 16 hours, ELISA, read-out: IC50 Against TNF-α
Procedure: Assay for inhibition of TNF-α production by human monocytes
Monocytes were prepared by centrifugal counterflow elutriation from PBMC obtained from leukophoresis of normal volunteers (leukopaks) at the Phoresis laboratory located at Duke University Hospital, Durham, N.C., United States of America. PBMC from leukopaks were diluted in sterile isotonic saline/10 mM HEPES (N-[2-Hydroxyethyl]piperazine-N′-[2-ethanesulfonic acid]), the name of a buffer used in biological and protein chemistry) and placed into 50 ml conical polypropylene tubes in 30 ml aliquots. Each aliquot of diluted PBMC is underlaid with 20-25 ml of sterile lymphocyte separation medium (LSM; Organon-Technika, Durham, N.C., United States of America). The tubes were centrifuged at 400× gravity for 40 minutes at room temperature. The mononuclear cells at the interface were resuspended in phosphate buffered saline (PBS) and then separated, using a Beckman elutriator, into lymphocytes and monocytes. Yields of 10^9 monocytes with greater than 90% purity were routinely obtained.
Purified monocytes prepared as described above were suspended at 4×10^6 cells/ml in complete medium. Complete medium is defined as follows: RPMI-1640 supplemented with 100 U/ml penicillin; 100 μg/ml streptomycin; 2 mM L-glutamine; 1 mM Na pyruvate; 1% MEM non-essential amino acids; 25 mM HEPES (all from GIBCO, Gaithersburg, Md., United States of America); and 5% pooled, heat-inactivated (56° C., 30 minutes) human serum from type AB blood (Pel-Freez, Brown Deer, Wis., United States of America). To each well of a 48-well flat bottomed tissue culture plate was added 0.125 ml of cell suspension. Test materials (diluted in complete medium at 2× the desired final concentration) were added in […] to each well. Control wells received 250 μl of complete medium. All samples were tested at a minimum of 4 concentrations in the presence or absence of 100 ng/ml LPS (S. typhosa; Sigma, St. Louis, Mo., United States of America; 125 μl of 4× desired final concentration added) and incubated at 37° C. in humidified 5% CO2 for 16 hours. At this time, culture supernatants were aspirated off and the unattached cells and cell debris removed by a 2 minute spin in a microcentrifuge at 10,000× gravity. The release of TNF-α was determined in the cell-free supernatants using an ELISA capture assay.

[7] = two weeks after a single infusion; cited from earlier work
[8] = 400 mg 3 times daily, 6 months; placebo 26.8%, p=0.04; cited from earlier work
[9] = molecular target: T1, biologically-active TNF-α (Homo sapiens, UniProt P01375); settings: heart failure patients; cited from earlier work
T1 construct: host or cells: serum of heart-failure patients

[10] = cited from earlier work
[11] = tested on: rats with permanent occlusion of the middle cerebral artery; settings: systemic administration, 10 mg/kg 1 hour post ischemia; compared with vehicle controls; cited from earlier work

T1 sequence (P01375 77-233 limits assumed): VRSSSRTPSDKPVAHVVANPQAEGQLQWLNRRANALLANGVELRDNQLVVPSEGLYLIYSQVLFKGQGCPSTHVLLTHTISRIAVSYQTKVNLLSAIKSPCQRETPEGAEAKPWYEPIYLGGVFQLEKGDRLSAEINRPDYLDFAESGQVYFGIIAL

Nc1nc(Cl)c2ncn(CCCCCB(O)O)c2n1 [LMP-420, 2-amino-6-chloro-9-[(5-dihydroxyboryl)-pentyl] purine]
effect on CCR4 mRNA [1]: no effect
effect on the production of nitric oxide as measured by the release of nitrate or nitrite [2]: no effect
effect on the mRNA for GAPDH [3]: no effect
IC50 [4]: ~1 µM
expression of mRNA encoding for CCR1 [5]: dose-dependent inhibition
IC50 [6]: 0.08 µM

CCOC(=O)CCCn1cnc2c(Cl)nc(N)nc21 [Comparison Compound 14]
IC50 [6]: > 20 µM

Nc1nc(Cl)c2ncn(CCCCO)c2n1 [Comparison Compound 6]
IC50 [6]: > 50 µM

REMICADE: humanized murine monoclonal antibody to TNF-α
patient's psoriasis [7]: dramatically cleared up

Nc1nc(Cl)c2ncn(CCCC(=O)O)c2n1 [Comparison Compound 13]
IC50 [6]: > 20 µM

CC(=O)CCCCn1c(=O)c2c(ncn2C)n(C)c1=O [Pentoxifylline]
left ventricular ejection fraction (LVEF) [8]: 38.7%

ENBREL
decrease in serum levels of biologically-active TNF-α [9]: 85%
patients who achieved the ARC20 ([10]; 12 weeks, placebo 13%): 73%
patients who met the PsARC ([10]; 12 weeks, placebo 23%): 87%
patients who achieved a 75% improvement in the PASI ([10]; 19 assessable patients per group, placebo 0, p=0.015): 26%
median target lesions (improvement) ([10]; placebo 0%): 50%
median PASI improvement ([10]; placebo 9%): 46%

C/C(=N\N=C(N)N)c1cc(NC(=O)CCCCCCCCC(=O)Nc2cc(/C(C)=N/N=C(N)N)cc(/C(C)=N/N=C(N)N)c2)cc(/C(C)=N/N=C(N)N)c1.Cl.Cl.Cl.Cl [CNI-1493]
reduced infarct volume [11]: 80%
